# Where two headings read alike, the source gives them in different places.
# Legend:
# [1] = biological target: GLYCERALDEHYDE 3-PHOSPHATE DEHYDROGENASE, GLYCOSOM (TB427.06.4300) (Trypanosoma brucei brucei, UniProt P22512); experiment: Multitargeted bead mixture competition; format: binding, T. brucei; details: for fold change - vehicle control / fold change: protein TB427.06.4300 GLYCERALDEHYDE 3-PHOSPHATE DEHYDROGENASE, GLYCOSOMAL; for fold change: vehicle control = 1
# [2] = biological target: T1, MTHFS, the 5-formyl-THF-cyclo-ligase (Homo sapiens, UniProt P49914); experiment: Multitargeted bead mixture competition, HeLa cell extract; format: binding; details: for binding to MTHFS: bead mixture, HeLa cell extract
# T1 sequence (P49914 1-203): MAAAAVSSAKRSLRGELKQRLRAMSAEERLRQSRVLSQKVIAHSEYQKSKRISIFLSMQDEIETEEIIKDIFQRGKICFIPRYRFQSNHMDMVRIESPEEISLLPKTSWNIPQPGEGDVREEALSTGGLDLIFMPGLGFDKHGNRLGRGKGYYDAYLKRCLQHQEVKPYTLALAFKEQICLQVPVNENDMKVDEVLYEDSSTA
# [3] = system: dynein associated protein (Tb09.211.4920); experiment: Multitargeted bead mixture competition; format: binding, T. brucei; details: for fold change - vehicle control / fold change: protein TB09.211.4920 DYNEIN-ASSOCIATED PROTEIN, PUTATIVE; for fold change: vehicle control = 1
# PTR1 = biological target: T2, PTR1 (Leishmania major, UniProt Q01782); format: binding; parameters: endogenous in cells; host or cells: L. major Friedlin promastigote lysate
# T2 sequence (Q01782 1-288): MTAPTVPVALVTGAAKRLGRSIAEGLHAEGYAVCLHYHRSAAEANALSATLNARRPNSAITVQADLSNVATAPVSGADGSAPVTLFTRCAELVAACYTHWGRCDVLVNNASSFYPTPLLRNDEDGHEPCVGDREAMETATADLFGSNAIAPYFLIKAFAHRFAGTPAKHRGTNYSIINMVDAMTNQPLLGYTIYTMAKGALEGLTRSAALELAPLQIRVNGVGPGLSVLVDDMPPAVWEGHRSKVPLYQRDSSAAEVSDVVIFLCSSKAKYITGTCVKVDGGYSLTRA
# [4] = LMJF.23.0270 PTERIDINE REDUCTASE 1, vehicle control = 1
# [5] = vs vehicle control, protein LMJF.23.0270 PTERIDINE REDUCTASE 1
# Chain of UniProt P22512 (P22512 whole entry): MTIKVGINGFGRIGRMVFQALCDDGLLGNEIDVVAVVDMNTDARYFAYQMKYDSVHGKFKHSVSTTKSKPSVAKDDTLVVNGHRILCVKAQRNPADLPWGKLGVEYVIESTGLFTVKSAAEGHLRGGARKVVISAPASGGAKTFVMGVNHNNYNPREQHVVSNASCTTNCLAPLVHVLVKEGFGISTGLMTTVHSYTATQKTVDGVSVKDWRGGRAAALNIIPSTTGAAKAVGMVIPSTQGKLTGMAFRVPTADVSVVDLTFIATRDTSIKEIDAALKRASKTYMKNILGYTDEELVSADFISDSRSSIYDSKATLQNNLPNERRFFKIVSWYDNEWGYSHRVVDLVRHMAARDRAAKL
Structure (SMILES),fold change - vehicle control [1],"fold changes relative to vehicle control ([2]; captured protein MTHFS, HeLa)",fold change - vehicle control [3],fold change (PTR1; [4]),fold change [1],fold change [3],"fold changes relative to vehicle control ([2]; protein MTHFS, HeLa)",fold change (PTR1; [5]),other results
Nc1nc2cccc(-c3ccccc3)c2n1Cc1ccc(Cl)c(Cl)c1 [compound 3],0.99,0.96,0.96,0.99,–,–,–,–,"percentage of competition from bead binding ([1]; multitargeted bead mixture, free ligand 100 μM, T. brucei lysate, TB427.06.4300 GAPDH): 3%; competition for PTR1 (Figure 8a) (PTR1; bead mixture, L. major lysate): no inhibition of PTR1"
"Nc1nc2[nH]cc(CCc3ccc(C(=O)N[C@@H](CCC(=O)O)C(=O)O)cc3)c2c(=O)[nH]1 [PTX, pemetrexed]",–,–,–,–,0.91,0.9,–,–,"fold changes relative to vehicle control [2]: 0.17; binding to MTHFS [2]: bound MTHFS; binding to dynein associated protein (Tb09.211.4920) ([3]; bead mixture, T. brucei lysates): bound specifically; fold change (PTR1): 0.52"
"Nc1nc2c(c(=O)[nH]1)N(C=O)C(CNc1ccc(C(=O)N[C@@H](CCC(=O)O)C(=O)O)cc1)CN2 (stereo partly drawn) [LEU, leucovorin]",–,–,–,–,1.01,0.78,0.15,1.04,binding to MTHFS [2]: bound MTHFS
CCCCCCOc1cccc(Cc2cnc(N)nc2N)c1 [compound 2],1.01,0.89,0.91,1.13,–,–,–,–,–
NCCOCCOCC(=O)Nc1nc2ncc(CNc3ccc(C(=O)NC(CCC(=O)O)C(=O)O)cc3)nc2c(=O)[nH]1 (stereo not drawn) [compound 6],–,–,–,–,0.92,0.86,0.5,0.98,–
CCCCCCOc1ccc(Cc2cnc(N)nc2N)cc1 [compound 1],0.93,0.21,0.67,1.1,–,–,–,–,–
NCCCNc1ccc(C(=O)NC(CCC(=O)O)C(=O)O)cc1 (stereo not drawn) [compound 7],–,–,–,–,1.07,0.68,1.03,1.02,–

# — paper PMC6199744, “Development of Chemical Proteomics for the Folateome and Analysis of the Kinetoplastid Folateome” (ACS Infectious Diseases, 2018)
